Measurements reported in patent publication US10676436B2, “NLRX1 ligands” (Landos Biopharma, Inc., priority 2018, dated 2020).

What was measured:
CD4+ T cells = test: Immunological screening in vitro in CD4+ splenocytes, flow cytometry; assay type: cell-based, C57BL/6 mice; conditions: for proportion of IFNγ producing (IFNγ+) CD4+ T cells / proportion of TNFα producing (TNFα+) CD4+ T cells: wild-type cells, 48 h, PMA and ionomycin; for size and dose dependence of the effect on TNFα producing and IFNγ producing cells: within the range tested
Excerpt: Spleens were excised from C57BL/6 mice. Spleens were crushed between the frosted ends of microscope slides and filtered to provide a cellular suspension. Red blood cells were lysed through hypotonic lysis. Remaining cells were washed and filtered. CD4+ T cells were enriched within the suspension using magnetic sorting based negative selection. Cells were collected and plated within 96 well plates coated with anti-CD3 and cultured in the presence of NX-13, NX-37, NX-43, NX-44, or NX-50 at 0, 0.1, 1 or 10 micromolar; NX-53, NX-54, NX-55, or NX-56 at 0, 0.1, or 1 micromolar; or NX-45 at 10, 50 or 100 nanomolar for 48 h. During the last 6 h of culture, cells were stimulated with phorbol 12-myristate-13-acetate (PMA) and ionomycin.
Cells were collected from 96 well plates and stained with a cocktail of antibodies for immunophenotyping by flow cytometry. Culture supernatant was collected and assayed for cytokine concentrations by cytometric bead array. Data was captured on a BD FACS Celesta and analyzed using FacsDiva.

[1] = biological target: T1, mutated NLRX1 protein (D677A, F680A, F681A, E684A) (Homo sapiens, UniProt Q86UT6, D677A/E684A/F680A/F681A); test: Surface plasmon resonance binding to NLRX1-Mutant
T1 construct: made in house; host or cells: Pichia pastoris (by 'similar methods')
T1 sequence (Q86UT6 87-975 D677A/F680A/F681A/E684A): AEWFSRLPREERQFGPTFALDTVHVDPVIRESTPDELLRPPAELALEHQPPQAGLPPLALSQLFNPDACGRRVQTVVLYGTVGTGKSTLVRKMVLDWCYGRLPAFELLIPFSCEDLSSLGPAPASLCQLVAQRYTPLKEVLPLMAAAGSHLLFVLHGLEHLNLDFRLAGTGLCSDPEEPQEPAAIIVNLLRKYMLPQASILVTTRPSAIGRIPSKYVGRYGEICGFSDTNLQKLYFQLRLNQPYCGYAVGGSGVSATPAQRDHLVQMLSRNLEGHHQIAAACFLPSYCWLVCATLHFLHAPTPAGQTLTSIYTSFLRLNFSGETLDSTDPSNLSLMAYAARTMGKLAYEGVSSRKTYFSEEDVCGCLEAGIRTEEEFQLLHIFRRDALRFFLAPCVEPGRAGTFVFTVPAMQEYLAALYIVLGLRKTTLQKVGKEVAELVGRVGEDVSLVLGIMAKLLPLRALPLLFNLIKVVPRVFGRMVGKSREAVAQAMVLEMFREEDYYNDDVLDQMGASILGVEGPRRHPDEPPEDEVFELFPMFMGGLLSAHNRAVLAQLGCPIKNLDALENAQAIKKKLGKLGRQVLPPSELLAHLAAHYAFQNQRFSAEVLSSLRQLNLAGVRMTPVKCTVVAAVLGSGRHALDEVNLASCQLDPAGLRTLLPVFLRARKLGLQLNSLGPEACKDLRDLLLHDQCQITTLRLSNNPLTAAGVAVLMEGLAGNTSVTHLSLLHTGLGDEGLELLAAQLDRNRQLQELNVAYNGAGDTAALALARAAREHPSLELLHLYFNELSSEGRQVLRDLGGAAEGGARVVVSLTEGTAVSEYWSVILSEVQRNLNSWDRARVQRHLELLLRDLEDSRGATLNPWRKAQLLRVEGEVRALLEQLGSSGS
Method: (§1) NLRX1 production and purification. Human NLRX1 (www.uniprot.org; UniProtKB—Q86UT6 (NLRX1 HUMAN)) was cloned into E. coli, amplified and transfected in Pichia pastoris. P. pastoris was plated onto adenine selective media. Stable transfected colonies were selected and grown within YPD broth at 30° C. for 24 hours, 240 RPM shaking. Starter culture was used to inoculate base media (1% yeast extract, 2% peptone, 1% sorbitol, 2% yeast nitrogen base) containing biotin and buffered with potassium phosphate. Inoculated base media was incubated for 48 hours at 30° C., 240 RPM. P. pastoris was then pelleted by centrifugation and resuspended in expression media (1% sorbitol, 2% yeast nitrogen base) containing biotin and buffered with potassium phosphate. Culture was induced daily for protein production through addition of methanol and incubated for a total of 4 days at 28° C., 240 RPM. After incubation, cells were pelleted by centrifugation and lysed by sonication. Recombinant NLRX1 protein was purified by fast protein liquid chromatography (AktaPrime) using immobilized metal affinity chromatography. Fractions of protein were eluted in 1 mL aliquots and evaluated for NLRX1 content. A mutated NLRX1 protein was generated using similar methods to disrupt binding within the predicted binding site through altering four residues to alanine (D677A, F680A, F681A, and E684A).
A Biacore T200 was used to evaluate binding to the NLRX1 protein. NLRX1-WT and NLRX1-Mutant were used as proteins to immobilize onto the CM5 sensor chip. NLRX1-WT was diluted in 10 mM sodium acetate buffer at pH 4.0 and immobilized onto the flow cell to a level of ˜3700 RU, using standard amine coupling chemistry. NLRX1-Mutant was diluted in 10 mM sodium acetate buffer at pH 4.0 and immobilized onto the flow cell to a level of ˜3100 RU, using standard amine coupling chemistry. 20 mM MOPS, 150 mM NaCl, 5 mM sodium acetate, 1 mM EDTA, 0.05% Tween-20, pH 8.0 buffer (Running buffer) was used as the immobilization running buffer. Based on the immobilized response values, theoretical Rmax values were calculated. […]

Human NLRX1 (NLRX1-WT) = biological target: T2, Human NLRX1 (NLRX1-WT) (Homo sapiens, UniProt Q86UT6); test: Surface plasmon resonance binding to NLRX1-WT
T2 construct: made in house; host or cells: Pichia pastoris
T2 sequence (Q86UT6 87-975): as the sequence (Q86UT6 87-975 D677A/F680A/F681A/E684A) above, with A591D, A594F, A595F, A598E counted along it
Method: as §1
A Biacore T200 was used to evaluate binding to the NLRX1 protein. NLRX1-WT and NLRX1-Mutant were used as proteins to immobilize onto the CM5 sensor chip. NLRX1-WT was diluted in 10 mM sodium acetate buffer at pH 4.0 and immobilized onto the flow cell to a level of ˜3700 RU, using standard amine coupling chemistry. NLRX1-Mutant was diluted in 10 mM sodium acetate buffer at pH 4.0 and immobilized onto the flow cell to a level of ˜3100 RU, using standard amine coupling chemistry. 20 mM MOPS, 150 mM NaCl, 5 mM sodium acetate, 1 mM EDTA, 0.05% Tween-20, pH 8.0 buffer (Running buffer) was used as the immobilization running buffer. Based on the immobilized response values, theoretical Rmax values were calculated. The Rmax values assume 1:1 interaction mechanism. Overnight kinetics were performed for all analytes binding to the immobilized proteins. The kinetics experiments were performed in the μL/min. presence of running buffer+1% DMSO. The flow rate of all solutions was maintained at 50 Analyte concentrations were 0 μM, 2.5 μM, 5 μM 10 μM 20 μM and 40 μM.

CT26 carcinoma cells = test: CT26 injected solid tumor model; assay type: in vivo, BALB/c mice
Method: (§2) Adult BALB/c mice were injected with 5×10^6 CT26 carcinoma cells subcutaneously in the hind flank. Mice were treated daily with NX-43 at 40 mg/kg via gavage beginning on day 9. Mice were weighed daily, and tumor diameter was measured every 3 days up to day 21. Tumors were collected at weighed at necropsy. A second mouse model was used. APC^min/+ mice were administered DSS in drinking water beginning at 5 weeks of age. Mice were challenged with DSS for a total of 5 days prior to return of standard drinking water. After DSS, mice were treated with NX-43 (40 mg/kg) by oral gavage for four weeks. After four weeks, colons were excised and washed. Number of polyps were counted, and colon weights were obtained.
Total RNA from tumors and lymph nodes can be generated using the Qiagen RNeasy mini kit. cDNA can be generated using the BioRad iScript cDNA synthesis kit. Standard curves can be generated by serial dilution of purified product from a standard PCR reaction with Taq DNA polymerase followed by purification using the Qiagen MinElute PCR purification kit. Expression levels can be obtained from quantitative real-time PCR with SybrGreen supermix on a BioRad CFX96 Thermal cycler followed by normalization to expression of β-actin. Gene expression can be measured for genes marking immune activation such as inflammatory cytokines or surface receptors, immune suppression such as CTLA-4, PD-1, or ARG-1, and tumor growth and metastasis.
H&E stained tumor and lymph node sections can be prepared from tissue collected into 10% buffered formalin and embedded in paraffin. Slides can be examined by a board-certified veterinary pathologist via an Olympus microscope and images will be collected with Image-Pro software. Samples can be scored and evaluated for presence of tumor infiltrating leukocytes, areas of necrosis and proportion of proliferating tumor cells.
Tumors and lymph nodes can be collected into RPMI/FBS buffer containing collagenase (300 U/mL) and DNase (50 U/mL) for digestion. Tissues can be digested for 60 minutes under stirring at 37° C. […]

[2] = tested on: APC^min/+ model of colorectal cancer; test: APCmin/+ model of colorectal cancer; assay type: in vivo, mice; conditions: 40 mg/kg oral, four weeks
Method: as §2

[3] = biological target: T3, NLRX1 (C terminus, pdb: 3UN9) (Homo sapiens, UniProt Q86UT6); conditions: low affinity NLRX1 ligand, published value; cited from earlier work
T3 construct: the published structure for the C terminus of NLRX1 (pdb: 3UN9)
T3 sequence (Q86UT6 629-975 limits assumed): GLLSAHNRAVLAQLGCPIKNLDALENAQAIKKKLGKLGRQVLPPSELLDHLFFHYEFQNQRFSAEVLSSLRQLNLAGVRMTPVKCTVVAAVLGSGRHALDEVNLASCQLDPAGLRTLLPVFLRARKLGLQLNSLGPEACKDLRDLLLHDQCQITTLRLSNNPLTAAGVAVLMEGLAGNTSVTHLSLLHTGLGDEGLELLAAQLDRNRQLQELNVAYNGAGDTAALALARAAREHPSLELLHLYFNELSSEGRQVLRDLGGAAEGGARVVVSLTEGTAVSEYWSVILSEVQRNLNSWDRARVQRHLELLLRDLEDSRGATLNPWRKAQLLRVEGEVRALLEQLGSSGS

[4] = tested at 10, 50 and 100 nanomolar

SMILES: Cc1cccc(Oc2cc(Oc3cccc(C)n3)cc(Oc3nc(C)cc(C)n3)c2)n1 [NX-37, 2-(3,5-bis(6-methylpyridin-2-yloxy)phenoxy)-4,6-dimethylpyrimidine]
- change in IL-10 producing cells (CD4+ T cells): Neither small molecule elicited a change
- function at NLRX1 concluded from the cytokine results (CD4+ T cells): specific inhibitors of NLRX1
- proportion of IFNγ producing (IFNγ+) CD4+ T cells (CD4+ T cells): increased
- proportion of TNFα producing (TNFα+) CD4+ T cells (CD4+ T cells): increased
- size and dose dependence of the effect on TNFα producing and IFNγ producing cells (CD4+ T cells): dose-dependent effects
- binding to the mutated NLRX1 protein [1]: Loss of binding
- binding to NLRX1 by surface plasmon resonance (in words) (Human NLRX1 (NLRX1-WT)): bind to NLRX1

SMILES: Cc1cccnc1Oc1cc(Oc2ccccc2)cc(Oc2ncccc2C)c1 [NX-43, 2,2′-(5-phenoxy-1,3-phenylene)bis(oxy)bis(3-methylpyridine)]
- time after initiation of treatment at which reduction in tumor diameter was observed (CT26 carcinoma cells; 40 mg/kg daily via gavage): less than 10 days
- tumor size relative to untreated controls (CT26 carcinoma cells; 40 mg/kg daily via gavage beginning on day 9): reduce
- reduction of overall tumor mass (CT26 carcinoma cells; after 12 days of treatment, 40 mg/kg): over 70%
- change in IL-10 producing cells (CD4+ T cells): Neither small molecule elicited a change
- function at NLRX1 concluded from the cytokine results (CD4+ T cells): specific inhibitors of NLRX1
- proportion of IFNγ producing (IFNγ+) CD4+ T cells (CD4+ T cells): increased
- proportion of TNFα producing (TNFα+) CD4+ T cells (CD4+ T cells): increased
- size and dose dependence of the effect on TNFα producing and IFNγ producing cells (CD4+ T cells): greater effect than NX-37
- binding to the mutated NLRX1 protein [1]: Loss of binding
- overall tumor burden (as evidenced by the colon weight) [2]: reduced
- number of colonic polyps ([2]; post-inflammation treatment): reduced
- binding to NLRX1 by surface plasmon resonance (in words) (Human NLRX1 (NLRX1-WT)): bind to NLRX1

SMILES: Cc1cc(O)cnc1Oc1cc(Oc2ccccc2)cc(Oc2ncc(O)cc2C)c1 [NX-44, 6,6′-(5-phenoxy-1,3-phenylene)bis(oxy)bis(5-methyl-3-pyridinol)]
- function at NLRX1 concluded from the cytokine results (CD4+ T cells): specific inhibitors of NLRX1
- proportion of IFNγ producing (IFNγ+) CD4+ T cells (CD4+ T cells): increased
- proportion of TNFα producing (TNFα+) CD4+ T cells (CD4+ T cells): increased

SMILES: Cc1cc(N)cnc1Oc1cc(Oc2ncc(N)cc2C)cc(Oc2ncc(N)cc2C)c1 [NX-45, 6,6′,6″-(benzene-1,3,5-triyltris(oxy))tris(5-methylpyridin-3-amine)]
- function at NLRX1 concluded from the cytokine results (CD4+ T cells): activators of NLRX1
- concentrations at which the significant reduction in IFNγ+ cells occurs (CD4+ T cells; [4]): ≥ 50 nM
- concentrations at which the significant reduction in TNFα+ cells occurs (CD4+ T cells; [4]): ≥ 10 nM
- proportion of IFNγ producing (IFNγ+) CD4+ T cells (CD4+ T cells): reduces
- proportion of TNFα producing (TNFα+) CD4+ T cells (CD4+ T cells): reduces

SMILES: Cc1cccnc1Oc1cc(Oc2ncccc2C)cc(Oc2ncccc2C)c1 [NX-50, 1,3,5-tris (3-methylpyridin-2-yloxy)benzene]
- function at NLRX1 concluded from the cytokine results (CD4+ T cells): activators of NLRX1
- proportion of IFNγ producing (IFNγ+) CD4+ T cells (CD4+ T cells): decreased
- proportion of TNFα producing (TNFα+) CD4+ T cells (CD4+ T cells): decreased

SMILES: Cc1cccc(Oc2cc(Oc3ccccc3)cc(Oc3cccc(C)n3)c2)n1 [NX-53, 2,2′-(5-phenoxy-1,3-phenylene)bis(oxy)bis(6-methylpyridine)]
- proportion of IFNγ producing (IFNγ+) CD4+ T cells (CD4+ T cells): weakly increased

SMILES: Cc1cccc(Oc2cc(Oc3ccccn3)cc(Oc3cccc(C)n3)c2)n1 [NX-54, 2,2′-(5-(pyridin-2-yloxy)-1,3-phenylene)bis(oxy)bis(6-methylpyridine)]
- proportion of IFNγ producing (IFNγ+) CD4+ T cells (CD4+ T cells): minimal effects at high concentrations

SMILES: Cc1cccc(Oc2cc(Oc3cccc(C)n3)cc(Oc3ccccc3C)c2)n1 [NX-55, 2,2′-(5-(6-methylphenoxy)-1,3-phenylene)bis(oxy)bis(6-methylpyridine)]
- proportion of IFNγ producing (IFNγ+) CD4+ T cells (CD4+ T cells): only a small decrease

SMILES: Cc1cccc(Oc2cc(Oc3cccc(C)n3)cc(Oc3ccccc3O)c2)n1 [NX-56, 2,2′-(5-(phen-6-ol)oxy-1,3-phenylene)bis(oxy)bis(6-methylpyridine)]
- proportion of IFNγ producing (IFNγ+) CD4+ T cells (CD4+ T cells): weakly increased

SMILES: CCCC\C=C/C=C/C=C\CCCCCCCC(=O)O [punicic acid]
- published binding affinity to NLRX1 [3]: -6.2 kcal/mol
